“Also recorded” adds a separate entry of the source. Non-standard residues stand in square brackets, D forms with d. Residues, ends and D or L forms follow the SMILES beside them. ξ: configuration not given here. *: point of attachment. Palmitoyl = CCCCCCCCCCCCCCCC(=O)*; Myristoyl = CCCCCCCCCCCCCC(=O)*; Lauroyl = CCCCCCCCCCCC(=O)*; Decanoyl = CCCCCCCCCC(=O)*; ξE = NC(CCC(=O)O)C(=O)O; ξD = NC(CC(=O)O)C(=O)O
Legend:
BmrA = target: T1, BmrA (Bacillus subtilis, UniProt O06967); experiment: Extraction of BmrA from membranes (SDS-PAGE of supernatant); parameters: species or system bacterial; overexpressed in E. coli C41DE3; details: detergent 10 g/l unless indicated otherwise; 2 h at 4° C.
T1 construct: His tag; made in house; host or cells: E. coli C41(DE3)
T1 sequence (O06967 whole entry): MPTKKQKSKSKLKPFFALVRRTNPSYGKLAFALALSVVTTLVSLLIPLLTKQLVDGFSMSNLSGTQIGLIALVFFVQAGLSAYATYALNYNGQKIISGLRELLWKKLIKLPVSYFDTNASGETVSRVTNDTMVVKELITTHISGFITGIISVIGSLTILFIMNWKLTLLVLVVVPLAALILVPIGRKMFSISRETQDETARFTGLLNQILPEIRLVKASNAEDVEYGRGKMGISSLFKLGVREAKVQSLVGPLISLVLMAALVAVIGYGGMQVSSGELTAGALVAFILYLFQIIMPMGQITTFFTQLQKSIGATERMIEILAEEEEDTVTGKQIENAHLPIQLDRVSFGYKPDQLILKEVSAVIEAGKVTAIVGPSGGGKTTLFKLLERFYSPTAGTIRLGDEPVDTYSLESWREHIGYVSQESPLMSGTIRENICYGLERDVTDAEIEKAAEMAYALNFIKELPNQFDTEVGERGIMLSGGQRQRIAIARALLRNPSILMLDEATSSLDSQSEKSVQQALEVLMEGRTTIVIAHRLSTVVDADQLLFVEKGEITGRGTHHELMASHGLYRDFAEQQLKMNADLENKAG
Procedure: (§1) FIG. 6 depicts the extraction of the membrane proteins BmrA (panels A and C) and AcrB (panels B and D) using commercial detergents and the molecules of the invention (panels A and B, from left to right): SDS, DDM, FC12, TX100, compounds of the invention 1.4, 1.5, 2.3a, 2.3b, 2.3c, 2.3d, 2.3e, 2.3f, 2.3g, 2.3h, 2.3i, 3.7a, 3.7b; panel C: compounds of the invention 3.7c 0.8%, 3.7d 0.16%, 3.7e 0.8%, 3.7f 0.3%, 3.7g 0.4%, 3.7h 0.2%, 3.7i 0.07%, 3.7j 0.09%, 3.7k, 3.7l, 0.25%, 3.9a, 4.5a, 4.5b, 4.5c, 4.5d 0.34%, 4.6a, 4.6b, 4.6c, 4.6d, 5.3a, 5.3b, 5.3c 0.3%, 5.3d 0.3%; panel D: 3.7c, 3.7d, 3.7e, 3.7f, 3.7h, 3.7i 0.1%, 3.7j, 3.7k, 3.7l, 3.9a, 4.5a, 4.5b, 4.5c, 4.5d, 4.6a, 4.6b, 4.6c, 4.6d. The detergents are added at 10 g/l (1%), unless indicated otherwise. The equivalent of 20 μg of proteins of the extracted fraction after centrifugation at 100 000×g for 30 min is deposited on 10% SDS-PAGE, stained with Coomassie blue after migration. BmrA migrates in its monomeric form to the level of the 55 kDa band; AcrB migrates in its monomeric form to the level of the 100 kDa band. SDS=sodium dodecyl sulfate; DDM=β-D-dodecyl maltoside; FC12=foscholine-12; TX100=triton X-100.
(§2) The extraction capacity of the detergents of the series is tested on membranes in which BmrA or AcrB are strongly expressed. The extraction with the clips (molecules of the invention) is compared to that obtained with commercial detergents, used as reference.
(§3) Procedure. BmrA represents 25% of the proteins present in the overexpression system used (E. coli, C41DE3). These membranes are prepared as described previously (Matar-Merheb, R. et al. ([11])). The membranes containing AcrB (approximately 20% of the membrane proteins, same expression system as BmrA) were prepared as described previously (Seeger, M. A. et al. ([21])). The detergents are used at 10 g/l unless indicated otherwise, and the proteins diluted at 2 g/l in a 20 mM Tris-HCl buffer, pH 8.0, 100 mM NaCl, 15% glycerol, with protease inhibitors (Roche) added thereto at an amount of one tablet/100 ml. The mixture (T) is incubated for 2 h at 4° C. then centrifuged for 1 h at 4° C. at 100 000×g in order to separate the extracted fraction (supernatant, S) from that which is not extracted (pellet). The supernatants are deposited on 10% SDS-PAGE and stained with Coomassie blue after migration. The foscholine 12, DDM and LMNG originate from Anatrace, the SDS and Triton X100 originate from Sigma-Aldrich.

[1] = Critical micelle concentration (CMC) by DPH fluorescence; assay type: physicochemical; details: 50 mM tris-HCl, pH 8.0
Procedure: FIG. 4 represents the fluorescence (%) of DPH (1,6-diphenyl-1,3,5-hexatriene) in the presence of increasing concentrations (0.0001 mM, 0.001 mM, 0.01 mM, 0.1 mM, 1 mM and 10 mM) of clips (compounds of the invention), exemplified with the compounds #3.7e (C13, points represented by squares) and 3.7f (C18, points represented by circles). The experiment is carried out in triplicates. In accordance with Chattopadhyay, A. & London, E ([22]), the CMC corresponds to the concentration at which the breakage in the slope is observed, here at 20 μM for 3.7f and 2 mM for 3.7e (black symbols).
Procedure. The molecules of the invention were prepared in a range of concentrations extending from 0.1 μM to 10 mM in 50 mM tris-HCl, pH 8.0 and neutralized at this pH. To 80 μl of each solution (triplicate), the same volume of 10 μM of 1,6-diphenyl-1,3,5-hexatriene (DPH, Sigma, D208000) is added, prepared at 100 μM in tetrahydrofuran then diluted 10-fold in H2O. The increase in the fluorescence of the DPH occurs when the latter find micelles of clips into which it can insert itself (Chattopadhyay, A. & London, E. Fluorimetric determination of critical micelle concentration avoiding interference from detergent charge. Anal Biochem 139, 408-412 (1984) ([22])). The fluorescence is read with a Xenius SAFAS fluorimeter by exciting at 358 nm and recording the fluorescence emission at 430 nm, with slits of 9 to 10 nm for the excitation and the emission and a gain of 100 to 150, depending on the cases.
Results. The CMC of the detergents is the concentration starting from which they associate with one another to form micelles, in which, in aqueous solution, the hydrophobic portions are grouped together at the center and the hydrophilic regions are exposed to the solvent. […] A typical result obtained with a compound 3.7 provided with a C13 (3.7e) or C18 ([…]) aliphatic chain is illustrated in FIG. 4.

AcrB = target: T2, AcrB (Escherichia coli, UniProt P31224); experiment: Extraction of AcrB from membranes (SDS-PAGE of supernatant); parameters: species or system bacterial; same expression system (E. coli C41DE3); details: for extraction of AcrB: detergent 10 g/l unless indicated otherwise, 2 h at 4° C.; for selective extraction AcrB versus BmrA: comparison of extraction of AcrB and BmrA
T2 construct: made in house; host or cells: E. coli C41(DE3)
T2 sequence (P31224 whole entry): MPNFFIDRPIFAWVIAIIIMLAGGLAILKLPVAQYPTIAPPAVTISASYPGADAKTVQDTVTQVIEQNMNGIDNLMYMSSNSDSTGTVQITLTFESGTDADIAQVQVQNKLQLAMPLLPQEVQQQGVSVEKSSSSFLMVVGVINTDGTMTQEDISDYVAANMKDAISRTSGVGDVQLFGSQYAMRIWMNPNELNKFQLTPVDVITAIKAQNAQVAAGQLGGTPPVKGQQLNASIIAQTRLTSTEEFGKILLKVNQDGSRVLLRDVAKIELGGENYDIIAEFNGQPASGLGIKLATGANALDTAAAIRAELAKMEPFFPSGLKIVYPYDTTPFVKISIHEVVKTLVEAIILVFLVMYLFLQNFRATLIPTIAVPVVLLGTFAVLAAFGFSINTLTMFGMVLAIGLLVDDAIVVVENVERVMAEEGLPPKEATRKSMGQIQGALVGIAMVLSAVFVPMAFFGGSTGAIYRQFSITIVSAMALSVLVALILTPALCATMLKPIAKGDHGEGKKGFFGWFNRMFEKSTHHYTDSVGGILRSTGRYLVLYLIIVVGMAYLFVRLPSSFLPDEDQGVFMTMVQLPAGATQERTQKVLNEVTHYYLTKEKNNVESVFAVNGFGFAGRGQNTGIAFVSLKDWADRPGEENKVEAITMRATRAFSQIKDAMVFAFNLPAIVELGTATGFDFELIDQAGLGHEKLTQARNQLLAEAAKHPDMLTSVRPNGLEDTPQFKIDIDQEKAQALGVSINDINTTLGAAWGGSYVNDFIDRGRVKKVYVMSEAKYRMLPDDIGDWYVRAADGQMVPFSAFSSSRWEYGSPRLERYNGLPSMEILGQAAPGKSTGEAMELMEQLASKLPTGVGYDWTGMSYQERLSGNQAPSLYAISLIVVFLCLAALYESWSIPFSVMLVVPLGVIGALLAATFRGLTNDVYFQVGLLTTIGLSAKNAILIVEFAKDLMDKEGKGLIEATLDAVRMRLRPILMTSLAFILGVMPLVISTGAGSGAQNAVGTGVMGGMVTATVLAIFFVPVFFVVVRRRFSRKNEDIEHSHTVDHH
Procedure: as §1, §2, §3

Molecule	extraction of BmrA (BmrA)	CMC [1]	extraction of AcrB (AcrB)	selective extraction AcrB versus BmrA (AcrB)
CCCNC(=O)[C@H](CO)NCC(=O)O [Compound 1.4]	extracting	–	–	–
CCCCCCCC(=O)N[C@@H](CO)C(=O)N[C@H](CCC(=O)O)C(=O)O [Compound 2.3b] (HELM PEPTIDE1{[CCCCCCCC(=O)[*:2]].S.[dE]}$$$$V2.0)	non-extracting	5 mM	extracting	–
CCCCCCCCCCCCCC(=O)N[C@@H](CO)C(=O)N[C@H](CCC(=O)O)C(=O)O [Compound 2.3a] (HELM PEPTIDE1{[CCCCCCCCCCCCCC(=O)[*:2]].S.[dE]}$$$$V2.0)	extracting	2 mM	extracting	–
CCCCCCCCCCCC(=O)NC(CC(=O)O)C(=O)NC(CCC(=O)O)C(=O)O (stereo not drawn) [Compound 4.5b] (Lauroyl-Asp-Glu-OH; configuration not given here)	partially extracting	2 mM	extracting	–
CCCCCCCCCC(=O)NC(CC(=O)O)C(=O)NC(CCC(=O)O)C(=O)O (stereo not drawn) [Compound 4.5a] (Decanoyl-Asp-Glu-OH; configuration not given here)	non-extracting	3 mM	partially extract	–
CCCCCCCCCCCCOS(=O)(=O)[O-].[Na+] [SDS, sodium dodecyl sulfate, reference compound]	effectively extracted	–	effectively extracted	–
CCCNC(=O)[C@H](CO)N(CC(=O)O)CC(=O)O [Compound 1.5]	partially extracting	2.5 mM	extracting	more effectively extract AcrB
CCCCCCCCCCCC(=O)NC(CC(=O)NC(CCC(=O)O)C(=O)O)C(=O)NC(CCC(=O)O)C(=O)O (stereo not shown) [Compound 4.6b] (Lauroyl-Asp(Glu)-Glu-OH; configuration not given here)	–	1 mM	–	not extract, or only very slightly extract, AcrB, unlike BmrA
CCCCCC(CCCCC)C(=O)N[C@@H](COCc1cn(CCO[C@@H]2OC(CO)[C@@H](O)C(O)C2O)nn1)C(=O)N[C@H](CCC(=O)O)C(=O)O (stereo partly shown) [Compound 3.7i]	non-extracting	1 mM	do not extract	–
CCCCCCCCCCCCOP(=O)([O-])OCC[N+](C)(C)C [FC12, foscholine-12, reference compound]	effectively extracted	–	effectively extracted	–
CCCCCCCCCCCCCC(=O)NC(CC(=O)N[C@@H](CCC(=O)O)C(=O)O)C(=O)NC(CCC(=O)O)C(=O)O (stereo partly shown) [Compound 4.6c] (Myristoyl-[ξD](Glu)-[ξE]-OH)	–	1 mM	extracting	–
CCCCCCCCCC(=O)N[C@@H](COCc1cn(CCO[C@@H]2OC(CO)[C@@H](O)C(O)C2O)nn1)C(=O)N[C@H](CCC(=O)O)C(=O)O (stereo partly shown) [Compound 3.7a]	non-extracting	2 mM	do not extract	–
[2H]C([2H])([2H])C([2H])([2H])C([2H])([2H])C([2H])([2H])C([2H])([2H])C([2H])([2H])C([2H])([2H])C([2H])([2H])C([2H])([2H])C([2H])([2H])C([2H])([2H])C(=O)N[C@@H](CO)C(=O)N[C@H](CCC(=O)O)C(=O)O [Compound 2.3i]	extracting	–	extracting	–
CCCCCCCCC(=O)N[C@@H](CO)C(=O)N[C@H](CCC(=O)O)C(=O)O [Compound 2.3c] (HELM PEPTIDE1{[CCCCCCCCC(=O)[*:2]].S.[dE]}$$$$V2.0)	non-extracting	3.5 mM	extracting	–
CCCCCCCCCCCCCCCC(=O)N[C@@H](CO)C(=O)N[C@H](CCC(=O)O)C(=O)O [Compound 2.3h] (HELM PEPTIDE1{[CCCCCCCCCCCCCCCC(=O)[*:2]].S.[dE]}$$$$V2.0)	extracting	0.5 mM	extracting	–
CCCCCCCCCCCC(=O)N[C@@H](CO)C(=O)N[C@H](CCC(=O)O)C(=O)O [Compound 2.3e] (HELM PEPTIDE1{[CCCCCCCCCCCC(=O)[*:2]].S.[dE]}$$$$V2.0)	–	1 mM	extracting	–
CCCCCCCCCCCCCC(=O)NC(CC(=O)O)C(=O)NC(CCC(=O)O)C(=O)O (stereo not drawn) [Compound 4.5c] (Myristoyl-Asp-Glu-OH; configuration not given here)	partially extracting	1.5 mM	extracting	–
CCCCCCCCCC(=O)NC(CC(=O)NC(CCC(=O)O)C(=O)O)C(=O)NC(CCC(=O)O)C(=O)O (stereo not shown) [Compound 4.6a] (Decanoyl-Asp(Glu)-Glu-OH; configuration not given here)	non-extracting	1 mM	do not extract	–
O=C(O)CC[C@@H](NC(=O)[C@H](COCc1cn(CCO[C@@H]2OC(CO)[C@@H](O)C(O)C2O)nn1)NC(=O)CCCCC1CCCCC1)C(=O)O (stereo partly shown) [Compound 3.7k]	non-extracting	1 mM	do not extract	–
CCCCCCCCCC(=O)N[C@@H](CO)C(=O)N[C@H](CCC(=O)O)C(=O)O [Compound 2.3d] (HELM PEPTIDE1{[CCCCCCCCCC(=O)[*:2]].S.[dE]}$$$$V2.0)	extracting	2 mM	extracting	–
CCCCCCCCCCCCCCCC(=O)NC(CC(=O)NC(CCC(=O)O)C(=O)O)C(=O)NC(CCC(=O)O)C(=O)O (stereo not shown) [Compound 4.6d] (Palmitoyl-Asp(Glu)-Glu-OH; configuration not given here)	extracting	1 mM	extracting; also recorded: partially extract	not extract, or only very slightly extract, AcrB, unlike BmrA
CCCCCCCCCCCCCC(=O)N[C@@H](CO)C(=O)N[C@H](CCC(=O)O)C(=O)O [Compound 2.3g] (HELM PEPTIDE1{[CCCCCCCCCCCCCC(=O)[*:2]].S.[dE]}$$$$V2.0)	extracting	–	extracting	–
triton X-100 [TX100, reference compound]	solubilize	–	solubilize	–

From patent publication US11440932B2, “Surfactant compounds-clips for extraction and stabilization in solution of membrane proteins” (CENTRE NATIONAL DE LA RECHERCHE SCIENTIFIQUE, priority 2017, dated 2022)
